Reference: patent US20210069333A1, “CANNABINOIDS IN COMBINATION WITH NON-CANNABINOID CHEMOTHERAPEUTIC AGENTS” (GW Pharma Limited, priority 2008, published 2021)

How the values were obtained:
[1] = test system: U87MG cells; experiment: Induced cell death in U87MG cells with ATG1 silencing or pan-caspase inhibitor; conditions: cell death induced by the THC:CBD combination, FIGS. 3b and 3c
[2] = test system: human U87 MG astrocytoma cells; experiment: Cell viability of human U87 MG astrocytoma cells in culture; type: cell-based; conditions: for IC50: Homo sapiens, U-87 MG, read-out: IC50 μM (pure cannabinoids); for reduction of cell viability in combination with THC vs agent alone: U87 MG, combined with THC, FIGS. 4 and 5
Experimental: Tetrahydrocannabinol (THC) and cannabidiol (CBD) in the form of cannabis plant extracts were dissolved in ethanol to a concentration of 100 mM this was stored at −20° C. until required.
Before use the cannabis plant extracts were further diluted to the desired concentration, ensuring that the concentration of ethanol was below 0.001%.
U87 human glioma cells were used throughout this experiment. The cells were maintained at 37° C. in a humidified atmosphere with 5% CO2 and 95% air.
Cells were cultured in a 75 cm^2 culture flask in Dulbecco's Modified Eagle Medium (DMEM), which had been supplemented with 4 mM L-glutamine, 100 units/ml penicillin, […], 1% sodium pyruvate, 1% non-essential amino acids and 10% heat-inactivated fetal bovine serum.
The viability of the human U87 MG astrocytoma cells were examined at various cannabinoid concentrations. The THC and CBD extracts were compared against pure THC and CBD.
The methods used were as described in Example 1 above.
The action of THC, CBD, and a 1:1 ratio mix of THC and CBD were studied at different concentrations on two cell lines: U87MG and T98G.
Cell viability assays were performed as described in Example 1 above.

[3] = test system: Human U87 MG astrocytoma cells xenografted to nude mice; experiment: U87 MG astrocytoma xenograft in nude mice, tumour volume; type: in vivo; conditions: 15 mg/kg per day, injected peritumourally
Experimental: Human U87 MG astrocytoma cells were xenografted to nude mice and the test compounds were injected peritumourally at a concentration of 15 mg/kg per day.

Row | Molecule | IC50 [2] [µM] | reduction of cell viability in combination with THC vs agent alone [2] | other results
1 | Z-VAD |  |  | effect on induced cell death [1]: prevent induced cell death
2 | CCCCCc1cc(O)c2c(c1)OC(C)(C)[C@@H]1CCC(C)=C[C@@H]21 [THC, tetrahydrocannabinol] | 0.37 |  | Tumour volume relative to zero time following 15 days of treatment [3]: 5.1 ± 0.4
3 | C=C(C)[C@@H]1CCC(C)=C[C@H]1c1c(O)cc(CCCCC)cc1O [CBD, cannabidiol] | 0.47 |  | 
4 | CC/C(=C(\c1ccccc1)c1ccc(OCCN(C)C)cc1)c1ccccc1 [tamoxifen] |  | more efficient at reducing cell viability | 
5 | N.N.[Cl][Pt][Cl] [cisplatin] |  | more efficient at reducing cell viability | 
